Reference: US20250302845A1, “SELECTIVE DOPAMINE INCREASE” (SOBRERA PHARMA AB, priority 2022, published 2025)
“Also recorded” adds a separate entry of the source.

What was measured:
Design in all cases: species or system Wistar Han rat
[1] = test system: dopamine (DA) in the dorsomedial striatum (DMS); test: In vivo microdialysis of dopamine in dorsomedial striatum (Example 1)
Protocol: (§1) 95 adult male Wistar Han rats (Envigo, Horst, Netherlands) were used in all experiments, weighing 280 to 350 g at the time of surgery (corresponding to approximately 9-10 weeks of age). The animals were housed in groups of five per cage (55×35×20 cm) at constant room temperature (22° C.), relative humidity (65%), and regular dark-light conditions (lights on at 7 AM and off at 7 PM). […] The animals were allowed to acclimate to the animal facilities for at least one week before surgery. This study was approved by the Ethics Committee for Animal Experiments, Gothenburg, Sweden and conducted according to national laws and guidelines for the care and use of laboratory animals.
(§2) Nicotine ((−)-nicotine hydrogen tartrate salt, Sigma, Stockholm, Sweden), 95% ethanol (Kemetyl AB, Stockholm, Sweden), varenicline (6,7,8,9-tetrahydro-6,10-methano-6H-pyrazino[2,3-h][3]benzazepine tartrate; provided by Pfizer Global Research and Development) and N-methyl-N-[(3R)-3-phenyl-3-[4-(trifluoromethyl) phenoxy]propyl]-glycine (Org 24598) (Tocris, Bristol, United Kingdom) were dissolved in physiological saline solution (0.9% NaCl) and administered subcutaneous (nicotine and varenicline) or intraperitoneal (ethanol and Org 24598) at a volume of 2 ml/kg (nicotine and varenicline), 5 ml/kg for EtOH and 4 ml/kg for Org 24598. The pH of the nicotine solution was neutralized with bicarbonate to approximately 7.2-7.4.
(§3) The microdialysis experiments were performed as previously described (Clarke, et al., 2014, Increase in nucleus accumbens dopamine levels following local ethanol administration is not mediated by acetaldehyde, Alcohol Alcohol 49, 498-504; Danielsson et al., 2021, Differential dopamine release by psychosis-generating and non-psychosis-generating addictive substances in the nucleus accumbens and dorsomedial striatum, Transl Psychiatry 11, 472). Animals were anaesthetized with isoflurane before being mounted into a stereotaxic instrument (David Kopf Instruments, AgnTho's, Stockholm, Sweden). The animals were equipped with either a standard in-house made single probe placed in the nAc (A/P +1.85, M/L −1.2, D/V −7.8) or the DMS (A/P+1.2, M/L −1.4, D/V −5.5) (Paxinos, 2007, The rat brain in stereotaxic coordinates. Amsterdam u.a.: Elsevier, Academic Press, Amsterdam), or a custom-made dual microdialysis probe (FIG. 1), which permits simultaneous sampling from both the nAc and DMS. Two additional holes were drilled in the skull in order to allow anchoring screws to be fastened, and the probe and screws were set in place using Harvard cement (DAB Dental AB, Stockholm, Sweden). The animals were then placed in single housing cages and allowed to recover for 48 h prior to the microdialysis experiment.
On the day of the experiment, the animals were connected to a microperfusion pump (U-864 Syringe Pump, AgnTho's, Sweden) via a swivel, which allowed the animals to move around the cage freely. […]
(§4) Microdialysis samples were analyzed as previously described for DA (Clarke, et al., 2014, Increase in nucleus accumbens dopamine levels following local ethanol administration is not mediated by acetaldehyde, Alcohol Alcohol 49, 498-504). In brief, DA content was analyzed using high performance liquid chromatography (HPLC) with electrochemical detection, using an external standard containing 3.25 fmol/μl of DA to identify DA peaks and quantify DA content. The chromatograms were analyzed using the software Thermo Scientific Chromelion Chromatography System (CDS) Chromelion 7.

[2] = test system: dopamine (DA) in the nucleus accumbens (nAc); test: In vivo microdialysis of dopamine in nucleus accumbens (Example 1); settings: for DA effect nAc vs DMS (brain region comparison over time): dual probe, Org 24598 9 mg/kg, varenicline 1.5 mg/kg
Protocol: as §1, §2, §3
On the day of the experiment, the animals were connected to a microperfusion pump (U-864 Syringe Pump, AgnTho's, Sweden) via a swivel, which allowed the animals to move around the cage freely. During the entire experiment, the probes were perfused with Ringer solution at a rate of 2 μl/min, and dialysate samples were collected every 20 min. Baseline sampling commenced after a 2-hour period, during which a balanced fluid exchange was established. Once at least three consecutive stable DA values were obtained (±10%), pharmacological treatment was administered, followed by a total of 180 minutes of sampling.
as §4

[3] = test system: dopamine (DA) in the nucleus accumbens (nAc); test: In vivo microdialysis of dopamine in nucleus accumbens (Example 2)
Protocol: (§5) Adult male Wistar Han rats (Envigo, Horst, Netherlands) were used, weighing approximately 320 g at the time of surgery (corresponding to approximately 9-10 weeks of age). The animals were housed in groups of five per cage (55×35×20 cm) at constant room temperature (22° C.), relative humidity (65%), and regular dark-light conditions (lights on at 7 AM and off at 7 PM). All animals had ad libitum access to standard rat feed (Harlan Teklad, Envigo, Europe) and tap water. The animals were allowed to acclimate to the animal facilities for at least one week before surgery. This study was approved by the Ethics Committee for Animal Experiments, Gothenburg, Sweden and conducted according to national laws and guidelines for the care and use of laboratory animals.
(§6) The microdialysis experiments were performed as previously described (Clarke et al., 2014; Danielsson et al., 2021). […]
as §4, with “(Clarke” for “(Clarke,”, “2014).” for “2014, Increase in nucleus accumbens dopamine levels following local ethanol administration is not mediated by acetaldehyde, Alcohol Alcohol 49, 498-504).”

[4] = test system: dopamine (DA) in the dorsomedial striatum (DMS); test: In vivo microdialysis of dopamine in dorsomedial striatum (Example 2); settings: 12 mg/kg i.p., dual probe, same Wistar rat, FIG. 5
Protocol: as §5, §6
as §4, with “(Clarke” for “(Clarke,”, “2014).” for “2014, Increase in nucleus accumbens dopamine levels following local ethanol administration is not mediated by acetaldehyde, Alcohol Alcohol 49, 498-504).”

[5] = single probe microdialysis, t=0-180 min, EtOH 2.5 g/kg intraperitoneal, nicotine 0.36 mg/kg subcutaneous, alone or combined
[6] = single probe microdialysis, t=0-180 min, EtOH 2.5 g/kg intraperitoneal, nicotine 0.36 mg/kg subcutaneous, alone or combined, listed as ethanol
[7] = dual probe microdialysis, 0-180 min, Org 24598 9 mg/kg intraperitoneal, varenicline 1.5 mg/kg subcutaneous, alone or combined
[8] = two-way ANOVA, 0-180 min, alone or combined

Structure (SMILES): CN1CCCC1c1cccnc1.O=C(O)C(O)C(O)C(=O)O (single isomer, unassigned; (-)) [nicotine, (−)-nicotine hydrogen tartrate salt]
- effect on DMS DA vs vehicle (AUC) ([1]; rat, in vivo): elevated DA significantly
- DA elevation nAc vs DMS (brain region comparison over time) ([2]; rat, in vivo): no effect by brain region on the DA elevation
- effect on nAc DA vs vehicle (AUC) ([2]; rat, in vivo): significant and substantial increase in accumbal DA

Structure (SMILES): CCO [EtOH, ethanol]
- effect on DMS DA vs vehicle (AUC) [1, 5]: significantly increased DA over time
- effect on DMS DA vs vehicle (AUC) [1, 6]: elevated DA significantly
- effect on nAc DA vs vehicle (AUC) [2, 5]: transient increase in DA
- effect on nAc DA vs vehicle (AUC) [2, 6]: not statistically significant
- DA elevation nAc vs DMS (brain region comparison over time) ([2]; two-way ANOVA, t=0-180 min, EtOH 2.5 g/kg, nicotine 0.36 mg/kg, alone or combined): did not produce statistically different DA elevations in the nAc and the DMS

Structure (SMILES): CN(CC[C@@H](Oc1ccc(C(F)(F)F)cc1)c1ccccc1)CC(=O)O [Org 24598, N-methyl-N-[(3R)-3-phenyl-3-[4-(trifluoromethyl)phenoxy]propyl]-glycine]
- effect on DMS DA vs vehicle (AUC) [1, 7]: minor DA increase
- effect on nAc DA vs vehicle (AUC) [2, 7]: no significant effect; also recorded: minor DA increase
- DA effect nAc vs DMS (brain region comparison over time) [2, 8]: did not differ between the two areas

Structure (SMILES): COc1cc(C(=O)NCC2(N(C)C)CCCC2)cc(OC)c1OCc1ccccc1.Cl [Org 25543]
- effect on dopamine levels in nAc ([3]; 12 mg/kg i.p., dual probe, same Wistar rat, FIG. 5): increase in dopamine levels in nAc
- effect on dopamine in the nAc ([3]; 4 or 8 mg/kg i.p., systemic administration, FIG. 4): dose-dependent increase of dopamine in the nAc
- effect on dopamine levels in DMS [4]: reduction in dopamine levels in DMS

Structure (SMILES): c1cnc2cc3c(cc2n1)[C@@H]1CNC[C@H]3C1 [varenicline, 7,8,9,10-tetrahydro-6,10-methano-6H-pyrazino[2,3-h][3]benzazepine]
- effect on DMS DA vs vehicle (AUC) [1, 7]: small but significant elevation of DA over time
- DA effect nAc vs DMS (brain region comparison over time) [2, 8]: did also not differ between brain regions
